Reference: ChEMBL document CHEMBL1671654, “In vivo activity of the pyrrolopyrazolyl-substituted oxazolidinone RWJ-416457” (Antimicrob Agents Chemother, 2009)
Converted amounts (≈) assume the structure as drawn. The source made the active and inactive calls. The calls are words filed in the database; no cut-off is given here.

Columns and labels:
[1] = Half life in CF-1 mouse at 10 mg/kg, sc; type: ADME, organism-based; set-up: dose 10 mg/kg, route subcutaneous; settings: in vivo
[2] = Cmax in CF-1 mouse at 10 mg/kg, po; type: ADME, organism-based; set-up: dose 10 mg/kg, route oral; settings: in vivo
Mus musculus [3] = assay: fCmax in CF-1 mouse at 10 mg/kg, po; type: ADME, organism-based; set-up: dose 10 mg/kg, route oral; settings: in vivo
Mus musculus [4] = assay: fCmax in CF-1 mouse at 10 mg/kg, sc; type: ADME, organism-based; set-up: dose 10 mg/kg, route subcutaneous; settings: in vivo
Streptococcus pneumoniae [5] = assay: Antibacterial activity against penicillin-susceptible Streptococcus pneumoniae ATCC 6301 after 16 to 20 hrs by broth microdilution method; type: functional
[6] = Ratio of fAUC (24 hrs) for community-associated methicillin-resistant Staphylococcus aureus OC8525 infected po dosed mouse to MIC for community-associated methicillin-resistant Staphylococcus aureus OC8525; type: functional
Staphylococcus aureus [7] = assay: Antibacterial activity against methicillin-susceptible Staphylococcus aureus ATCC 13709 infected in sc dosed Swiss Webster mouse administered at 1 to 3 hrs post infection measured after 3 days; type: functional; settings: ATCC 13709, sc
Staphylococcus aureus [8] = assay: Antibacterial activity against methicillin-susceptible Staphylococcus aureus Smith ATCC 13709 infected in SKH1 mouse assessed as log reduction in CFU/g skin at 5 mg/kg/day, po administered post infection measured after 48 hrs; type: functional, organism-based
[9] = Cmax in CF-1 mouse at 2 mg/kg, iv; type: ADME, organism-based; set-up: dose 2 mg/kg, route intravenous; settings: in vivo
[10] = Tmax in CF-1 mouse serum at 10 mg/kg, sc; type: ADME, organism-based; set-up: dose 10 mg/kg, route subcutaneous
Staphylococcus aureus [11] = assay: Bacteriostatic activity against methicillin-susceptible Staphylococcus aureus Smith ATCC 13709 infected in SKH1 mouse at 20 mg/kg/day, po administered post infection measured after 48 hrs; type: functional, organism-based
Streptococcus pneumoniae [12] = assay: Antibacterial activity against penicillin-susceptible Streptococcus pneumoniae ATCC 6301 infected in po dosed CF-1 mouse administered at 24 hrs post infection measured after 48 hrs relative to Linezolid; type: functional
Streptococcus pneumoniae [13] = assay: Antibacterial activity against penicillin-susceptible Streptococcus pneumoniae ATCC 6301 infected in sc dosed Swiss Webster mouse administered at 1 to 3 hrs post infection measured after 3 days; type: functional; settings: ATCC 6301, sc
[14] = Apparent oral clearance in CF-1 mouse at 10 mg/kg, sc; type: ADME, organism-based; set-up: dose 10 mg/kg, route oral; settings: in vivo
[15] = Cmax in CF-1 mouse at 10 mg/kg, sc; type: ADME, organism-based; set-up: dose 10 mg/kg, route subcutaneous; settings: in vivo
Staphylococcus aureus [16] = assay: Antibacterial activity against Methicillin-susceptible Staphylococcus aureus ATCC 13709 after 16 to 20 hrs by broth microdilution method; type: functional
[17] = Ratio of fAUC (24 hrs) for penicillin-susceptible Streptococcus pneumoniae ATCC 6301 infected sc dosed mouse to MIC for penicillin-susceptible Streptococcus pneumoniae ATCC 6301; type: functional
Staphylococcus aureus [18] = assay: Antibacterial activity against community-associated methicillin-resistant Staphylococcus aureus OC8525 infected in sc dosed Swiss Webster mouse administered at 1 to 3 hrs post infection measured after 3 days; type: functional
Mus musculus [19] = assay: fAUC (0 to 24 hrs) in CF-1 mouse at 10 mg/kg, po; type: ADME, organism-based; set-up: dose 10 mg/kg, route oral; settings: in vivo
Staphylococcus aureus [20] = assay: Antibacterial activity against methicillin-susceptible Staphylococcus aureus Smith ATCC 13709 infected in SKH1 mouse assessed as log reduction in CFU/g skin at => 80 mg/kg/day, po administered post infection measured after 48 hrs; type: functional
Staphylococcus aureus [21] = assay: Antibacterial activity against Methicillin-susceptible Staphylococcus aureus ATCC 13709 after 16 to 20 hrs by broth microdilution method relative to Linezolid; type: functional
Staphylococcus aureus [22] = assay: Antibacterial activity against Methicillin-susceptible Staphylococcus aureus assessed as skin lesion size; type: functional
Staphylococcus aureus [23] = assay: Antibacterial activity against community-associated methicillin-resistant Staphylococcus aureus OC8525 infected in SKH1 mouse assessed as log reduction in CFU/g skin up to 320 mg/kg/day, po administered post infection measured after 48 hrs; type: functional
Streptococcus pneumoniae [24] = assay: Antibacterial activity against penicillin-susceptible Streptococcus pneumoniae ATCC 6301 after 16 to 20 hrs by broth microdilution method relative to Linezolid; type: functional
[25] = Ratio of fAUC (24 hrs) for penicillin-susceptible Streptococcus pneumoniae ATCC 6301 infected iv dosed mouse to MIC for penicillin-susceptible Streptococcus pneumoniae ATCC 6301; type: functional
Staphylococcus aureus [26] = assay: Antibacterial activity against community-associated methicillin-resistant Staphylococcus aureus OC8525 infected in po dosed Swiss Webster mouse administered at 1 to 3 hrs post infection measured after 3 days; type: functional
[27] = Ratio of fAUC (24 hrs) for community-associated methicillin-resistant Staphylococcus aureus OC8525 infected sc dosed mouse to MIC for community-associated methicillin-resistant Staphylococcus aureus OC8525; type: functional
[28] = Ratio of fAUC (24 hrs) for Methicillin-susceptible Staphylococcus aureus ATCC 13709 infected iv dosed mouse to MIC for Methicillin-susceptible Staphylococcus aureus ATCC 1370; type: functional
[29] = Ratio of fAUC (24 hrs) for Methicillin-susceptible Staphylococcus aureus ATCC 13709 infected po dosed mouse to MIC for Methicillin-susceptible Staphylococcus aureus ATCC 1370; type: functional
Staphylococcus aureus [30] = assay: Antibacterial activity against Methicillin-resistant Staphylococcus aureus assessed as skin lesion size; type: functional
Streptococcus pneumoniae [31] = assay: Antibacterial activity against penicillin-susceptible Streptococcus pneumoniae ATCC 6301 infected in po dosed Swiss Webster mouse administered at 1 to 3 hrs post infection measured after 3 days; type: functional; settings: ATCC 6301, po
[32] = Tmax in CF-1 mouse serum at 10 mg/kg, po; type: ADME, organism-based; set-up: dose 10 mg/kg, route oral
[33] = AUC (0 to 24 hrs) in CF-1 mouse at 10 mg/kg, sc; type: ADME, organism-based; set-up: time < 24 hr, dose 10 mg/kg, route subcutaneous; settings: plasma
[34] = Apparent oral clearance in CF-1 mouse at 10 mg/kg, po; type: ADME, organism-based; set-up: dose 10 mg/kg, route oral; settings: in vivo
[35] = AUC (0 to 24 hrs) in CF-1 mouse at 2 mg/kg, iv; type: ADME, organism-based; set-up: time < 24 hr, dose 2 mg/kg, route intravenous; settings: plasma
[36] = Half life in CF-1 mouse at 10 mg/kg, po; type: ADME, organism-based; set-up: dose 10 mg/kg, route oral; settings: in vivo
[37] = Ratio of fAUC (24 hrs) for community-associated methicillin-resistant Staphylococcus aureus OC8525 infected iv dosed mouse to MIC for community-associated methicillin-resistant Staphylococcus aureus OC8525; type: functional
Staphylococcus aureus [38] = assay: Antibacterial activity against community-associated methicillin-resistant Staphylococcus aureus OC8525 infected in SKH1 mouse assessed as log reduction in CFU/g skin at 5 mg/kg/day, po administered post infection measured after 48 hrs; type: functional, organism-based
[39] = Half life in CF-1 mouse at 2 mg/kg, iv; type: ADME, organism-based; set-up: dose 2 mg/kg, route intravenous; settings: in vivo
Streptococcus pneumoniae [40] = assay: Antibacterial activity against penicillin-susceptible Streptococcus pneumoniae ATCC 6301 infected in iv dosed Swiss Webster mouse administered at 1 to 3 hrs post infection measured after 3 days; type: functional; settings: ATCC 6301, iv
Staphylococcus aureus [41] = assay: Antibacterial activity against methicillin-susceptible Staphylococcus aureus ATCC 13709 infected in po dosed Swiss Webster mouse administered at 1 to 3 hrs post infection measured after 3 days; type: functional; settings: ATCC 13709, po
Mus musculus [42] = assay: fAUC (0 to 24 hrs) in CF-1 mouse at 10 mg/kg, sc; type: ADME, organism-based; set-up: dose 10 mg/kg, route subcutaneous; settings: in vivo
[43] = Ratio of fAUC (24 hrs) for penicillin-susceptible Streptococcus pneumoniae ATCC 6301 infected po dosed mouse to MIC for penicillin-susceptible Streptococcus pneumoniae ATCC 6301; type: functional
[44] = Ratio of fAUC (24 hrs) for Methicillin-susceptible Staphylococcus aureus ATCC 13709 infected sc dosed mouse to MIC for Methicillin-susceptible Staphylococcus aureus ATCC 1370; type: functional
Mus musculus [45] = assay: fAUC (0 to 24 hrs) in CF-1 mouse at 2 mg/kg, iv; type: ADME, organism-based; set-up: dose 2 mg/kg, route intravenous; settings: in vivo
[46] = Clearance in CF-1 mouse at 2 mg/kg, iv; type: ADME, organism-based; set-up: dose 2 mg/kg, route intravenous; settings: in vivo
[47] = AUC (0 to 24 hrs) in CF-1 mouse at 10 mg/kg, po; type: ADME, organism-based; set-up: time < 24 hr, dose 10 mg/kg, route oral; settings: plasma
Staphylococcus aureus [48] = assay: Antibacterial activity against community-associated methicillin-resistant Staphylococcus aureus OC8525 after 16 to 20 hrs by broth microdilution method; type: functional
Mus musculus [49] = assay: fCmax in CF-1 mouse at 2 mg/kg, iv; type: ADME, organism-based; set-up: dose 2 mg/kg, route intravenous; settings: in vivo
Staphylococcus aureus [50] = assay: Antibacterial activity against methicillin-susceptible Staphylococcus aureus ATCC 13709 infected in iv dosed Swiss Webster mouse administered at 1 to 3 hrs post infection measured after 3 days; type: functional; settings: ATCC 13709, iv
Staphylococcus aureus [51] = assay: Antibacterial activity against community-associated methicillin-resistant Staphylococcus aureus OC8525 infected in iv dosed Swiss Webster mouse administered at 1 to 3 hrs post infection measured after 3 days; type: functional

CC(=O)NC[C@H]1CN(c2ccc(N3Cc4cn(C)nc4C3)c(F)c2)C(=O)O1
half-life [1]: 2 h | Cmax [2]: 3500 ng/mL | fCmax (Mus musculus [3]): 1.9 µg/mL | fCmax (Mus musculus [4]): 4.1 µg/mL | MIC (Streptococcus pneumoniae [5]): 1 µg/mL (≈ 2.68 µM) | fAUC/MIC [6]: 6.3 | ED50 (Staphylococcus aureus [7]): 4.7 mg/kg/day | Activity (Staphylococcus aureus [8]): inactive | Cmax [9]: 4400 ng/mL | Tmax [10]: 0.5 h | Activity (Staphylococcus aureus [11]): Active | fold change (FC) (Streptococcus pneumoniae [12]): 2 | ED50 (Streptococcus pneumoniae [12]; Streptococcus pneumoniae, ATCC 6301, po): 3.1 mg/kg/day | ED50 (Streptococcus pneumoniae [13]): 9.3 mg/kg/day | CL/F [14]: 10.8 mL/min/kg | Cmax [15]: 7500 ng/mL | MIC (Staphylococcus aureus [16]): 1 µg/mL (≈ 2.68 µM) | fAUC/MIC [17]: 8.3 | ED50 (Staphylococcus aureus [18]): 3.5 mg/kg/day | fAUC (Mus musculus [19]): 13000 ng·h/mL | FC (Staphylococcus aureus [20]): 0.9 | fold change (FC) (Staphylococcus aureus [21]): 2 | Activity (Staphylococcus aureus [22]): 14% | FC (Staphylococcus aureus [23]): 1 | fold change (FC) (Streptococcus pneumoniae [24]): 2 | fAUC/MIC [25]: 8.6 | ED50 (Staphylococcus aureus [26]): 2.1 mg/kg/day | fAUC/MIC [27]: 4.1 | fAUC/MIC [28]: 8.6 | fAUC/MIC [29]: 13 | Activity (Staphylococcus aureus [30]): 23% | ED50 (Streptococcus pneumoniae [31]): 3.1 mg/kg/day | Tmax [32]: 2 h | AUC(0-t) at 24 h [33]: 15000 ng·h/mL | CL/F [34]: 7.17 mL/min/kg | AUC(0-t) at 24 h [35]: 3200 ng·h/mL | half-life [36]: 3.4 h | fAUC/MIC [37]: 4.3 | Activity (Staphylococcus aureus [38]): inactive | half-life [39]: 1.5 h | ED50 (Streptococcus pneumoniae [40]): 18 mg/kg/day | ED50 (Staphylococcus aureus [41]): 3.4 mg/kg/day | fAUC (Mus musculus [42]): 8300 ng·h/mL | fAUC/MIC [43]: 13 | fAUC/MIC [44]: 8.3 | fAUC (Mus musculus [45]): 1700 ng·h/mL | clearance [46]: 10.5 mL/min/kg | AUC(0-t) at 24 h [47]: 23000 ng·h/mL | MIC (Staphylococcus aureus [48]): 2 µg/mL (≈ 5.36 µM) | fCmax (Mus musculus [49]): 2.4 µg/mL | ED50 (Staphylococcus aureus [50]): 4 mg/kg/day | ED50 (Staphylococcus aureus [51]): 1.5 mg/kg/day
